The source made the active and inactive calls. No cut-off for these calls is given here.
Legend:
[1] = target: Insulin-like growth factor 1 receptor (Homo sapiens, UniProt P08069); test: Inhibition of IGF1R by ELISA
Insulin receptor = Insulin receptor (Homo sapiens, UniProt P06213); test: Inhibition of IR by ELISA
MCF7 = test: Antiproliferative activity against human MCF7 cells after 72 hrs by SRB assay; type: functional, cell-based; conditions: MCF7, 72 h
[2] = target: Proto-oncogene tyrosine-protein kinase Src (Homo sapiens) (UniProt P12931); test: Inhibition of c-Src at 10 uM
[3] = Dissociation constant, pKa of the compound; type: physicochemical

Insulin receptor, sequence (P06213 28-758 limits assumed): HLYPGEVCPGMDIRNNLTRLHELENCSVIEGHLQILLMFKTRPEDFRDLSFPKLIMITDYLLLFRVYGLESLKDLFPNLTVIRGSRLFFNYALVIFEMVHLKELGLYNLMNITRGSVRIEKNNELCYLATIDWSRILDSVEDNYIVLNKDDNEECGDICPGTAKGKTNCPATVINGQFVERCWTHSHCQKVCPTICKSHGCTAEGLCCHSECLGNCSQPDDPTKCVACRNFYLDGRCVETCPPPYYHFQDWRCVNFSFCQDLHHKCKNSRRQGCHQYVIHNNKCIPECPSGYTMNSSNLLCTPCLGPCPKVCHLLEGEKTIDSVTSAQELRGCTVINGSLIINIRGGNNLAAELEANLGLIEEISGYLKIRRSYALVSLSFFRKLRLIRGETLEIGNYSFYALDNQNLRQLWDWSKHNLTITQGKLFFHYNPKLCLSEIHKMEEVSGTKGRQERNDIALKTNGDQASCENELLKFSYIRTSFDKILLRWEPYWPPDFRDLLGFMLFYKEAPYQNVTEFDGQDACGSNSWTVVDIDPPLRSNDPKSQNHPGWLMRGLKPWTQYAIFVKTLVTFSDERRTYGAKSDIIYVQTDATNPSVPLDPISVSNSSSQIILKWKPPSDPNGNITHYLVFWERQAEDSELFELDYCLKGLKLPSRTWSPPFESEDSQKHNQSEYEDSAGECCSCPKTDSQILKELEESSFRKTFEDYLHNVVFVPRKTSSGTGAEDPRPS
Insulin receptor, sequence (P06213 763-1382 limits assumed): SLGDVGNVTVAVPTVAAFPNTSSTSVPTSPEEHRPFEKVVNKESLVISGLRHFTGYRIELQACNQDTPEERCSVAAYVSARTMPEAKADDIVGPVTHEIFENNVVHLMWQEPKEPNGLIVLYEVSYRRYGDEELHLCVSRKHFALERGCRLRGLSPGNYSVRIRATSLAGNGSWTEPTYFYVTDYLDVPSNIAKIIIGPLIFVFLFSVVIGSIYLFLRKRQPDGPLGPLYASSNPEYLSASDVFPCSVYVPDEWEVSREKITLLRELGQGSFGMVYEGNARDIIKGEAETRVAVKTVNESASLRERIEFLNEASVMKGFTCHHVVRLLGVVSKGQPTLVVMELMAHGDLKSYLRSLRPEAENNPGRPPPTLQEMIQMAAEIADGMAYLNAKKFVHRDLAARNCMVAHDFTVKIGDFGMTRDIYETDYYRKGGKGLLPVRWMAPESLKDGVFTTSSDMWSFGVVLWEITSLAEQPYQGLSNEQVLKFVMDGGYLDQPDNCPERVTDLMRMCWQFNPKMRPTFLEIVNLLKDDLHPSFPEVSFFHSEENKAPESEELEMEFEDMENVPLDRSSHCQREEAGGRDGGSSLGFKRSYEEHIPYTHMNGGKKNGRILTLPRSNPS
Insulin-like growth factor 1 receptor, sequence (P08069 31-736 limits assumed): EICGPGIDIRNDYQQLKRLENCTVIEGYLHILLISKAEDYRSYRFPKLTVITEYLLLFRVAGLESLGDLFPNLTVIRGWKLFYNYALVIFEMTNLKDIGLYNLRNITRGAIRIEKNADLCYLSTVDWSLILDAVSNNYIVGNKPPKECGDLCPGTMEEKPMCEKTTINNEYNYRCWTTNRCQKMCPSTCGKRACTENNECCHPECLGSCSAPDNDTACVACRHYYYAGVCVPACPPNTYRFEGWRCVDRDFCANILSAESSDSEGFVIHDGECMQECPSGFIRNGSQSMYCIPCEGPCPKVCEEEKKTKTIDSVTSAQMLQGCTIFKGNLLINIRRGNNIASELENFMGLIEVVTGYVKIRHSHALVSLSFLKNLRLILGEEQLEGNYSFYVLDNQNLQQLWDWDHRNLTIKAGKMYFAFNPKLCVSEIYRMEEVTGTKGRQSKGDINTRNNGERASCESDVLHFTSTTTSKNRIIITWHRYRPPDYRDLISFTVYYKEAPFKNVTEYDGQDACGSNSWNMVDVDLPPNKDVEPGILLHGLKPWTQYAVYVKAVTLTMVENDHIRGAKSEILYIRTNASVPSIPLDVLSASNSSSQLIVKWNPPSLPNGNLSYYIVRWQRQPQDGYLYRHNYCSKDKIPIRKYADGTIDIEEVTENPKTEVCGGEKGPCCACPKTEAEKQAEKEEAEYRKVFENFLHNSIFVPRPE
Insulin-like growth factor 1 receptor, sequence (P08069 741-1367 limits assumed): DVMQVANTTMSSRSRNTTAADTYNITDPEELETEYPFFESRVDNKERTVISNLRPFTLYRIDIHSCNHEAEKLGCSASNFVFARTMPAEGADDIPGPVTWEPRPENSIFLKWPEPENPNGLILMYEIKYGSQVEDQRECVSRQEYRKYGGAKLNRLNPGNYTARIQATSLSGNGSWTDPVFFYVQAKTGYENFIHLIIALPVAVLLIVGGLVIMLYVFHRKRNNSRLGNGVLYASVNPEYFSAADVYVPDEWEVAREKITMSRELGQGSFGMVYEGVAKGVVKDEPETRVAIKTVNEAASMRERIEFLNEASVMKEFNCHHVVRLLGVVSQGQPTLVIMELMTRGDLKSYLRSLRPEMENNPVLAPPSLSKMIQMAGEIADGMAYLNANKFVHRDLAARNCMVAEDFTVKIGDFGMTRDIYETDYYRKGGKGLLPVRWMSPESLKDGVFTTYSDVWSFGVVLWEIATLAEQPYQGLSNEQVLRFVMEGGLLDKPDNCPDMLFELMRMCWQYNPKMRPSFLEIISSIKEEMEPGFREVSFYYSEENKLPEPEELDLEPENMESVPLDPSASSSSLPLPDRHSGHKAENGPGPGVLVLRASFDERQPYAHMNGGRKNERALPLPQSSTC
Proto-oncogene tyrosine-protein kinase Src (Homo sapiens), sequence (P12931 2-536 limits assumed): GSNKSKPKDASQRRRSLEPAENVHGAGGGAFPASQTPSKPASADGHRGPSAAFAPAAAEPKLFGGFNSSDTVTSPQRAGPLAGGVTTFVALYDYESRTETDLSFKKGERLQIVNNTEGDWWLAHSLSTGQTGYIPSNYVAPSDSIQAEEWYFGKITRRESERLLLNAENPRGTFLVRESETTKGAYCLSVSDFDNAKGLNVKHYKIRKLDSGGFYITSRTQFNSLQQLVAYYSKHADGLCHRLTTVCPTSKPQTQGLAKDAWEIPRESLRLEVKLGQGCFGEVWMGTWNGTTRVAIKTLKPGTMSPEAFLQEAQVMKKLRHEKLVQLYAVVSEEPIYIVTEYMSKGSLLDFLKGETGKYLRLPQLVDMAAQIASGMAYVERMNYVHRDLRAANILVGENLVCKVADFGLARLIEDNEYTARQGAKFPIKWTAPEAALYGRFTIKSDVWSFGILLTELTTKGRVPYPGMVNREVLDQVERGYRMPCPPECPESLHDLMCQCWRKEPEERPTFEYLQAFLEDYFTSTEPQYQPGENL

SMILES | IC50 [1] [µM] | IC50 (Insulin receptor) [µM] | IC50 (MCF7) [µM] | Activity [2] | pKa [3]
O=C1NC(=S)S/C1=C\c1ccc(-c2ccccc2Cl)o1 |  |  | > 100 |  | 
CCOc1ccc(/C=C2\SC(=O)NC2=O)cc1OCC(C)C | 63.9 |  |  |  | 
O=C1NC(=O)/C(=C\c2ccc(N3CCCC3)c(F)c2)S1 | > 100 |  |  |  | 
COc1cc(/C=C2\SC(=O)NC2=O)ccc1OCc1ccc(Cl)cc1Cl | > 100 |  |  |  | 
O=C1NC(=O)/C(=C\c2ccc(OCc3ccccc3Cl)cc2)S1 | > 100 |  |  |  | 
O=C1NC(=O)/C(=C\c2ccc(-c3ccc(Br)cc3)o2)S1 | 6.7 | > 100 | 47.3 |  | 
O=C1NC(=O)/C(=C\c2ccc(-c3cccc(Br)c3)o2)S1 | 0.057 | 28 | 25.3 |  | 
O=C1NC(=O)/C(=C\c2ccccc2OCc2ccc(Cl)cc2Cl)S1 | > 100 |  |  |  | 
O=C1NC(=O)/C(=C\c2ccc(-c3cccc(Cl)c3Cl)o2)S1 | 3.4 | > 100 | 21.5 |  | 
CCC(C)COc1ccccc1/C=C1/SC(=O)NC1=O (stereo not given) | 9 | > 100 | > 100 |  | 
O=C1NC(=O)/C(=C\c2ccc(-c3ccc(Cl)cc3Cl)o2)S1 |  |  | 17.3 |  | 
O=C1NC(=S)S/C1=C\c1ccc(-c2ccc(C(=O)O)cc2)o1 |  |  | 41.9 |  | 
O=C1NC(=O)/C(=C/c2ccccc2F)S1 | 6.6 | > 100 | > 100 |  | 
O=C1NC(=O)/C(=C/c2ccc(-c3ccc(O)c(C(=O)O)c3)o2)S1 |  |  | 81.3 |  | 
CCCCOc1ccc(/C=C2\SC(=O)NC2=O)cc1 | > 100 |  |  |  | 
O=C1NC(=O)/C(=C/c2cccc(OCc3ccc(Cl)cc3Cl)c2)S1 | 1.6 | > 100 | 25.2 |  | 
CCC(=O)c1cccc(Nc2ccc3c(c2)/C(=C/Nc2ccc(N4CCN(C)CC4)cc2)C(=O)NC3=O)c1 | 0.319 |  |  |  | 
O=C1NC(=O)/C(=C\c2ccc(-c3ccc(F)c(Cl)c3)o2)S1 | 0.28 | > 100 | 16.9 |  | 
O=C1NC(=O)/C(=C\c2ccc(-c3ccc(Cl)c(Cl)c3)o2)S1 |  |  | 14.8 |  | 7.9
CCOc1cccc(/C=C2/SC(=O)NC2=O)c1O | 8.6 | > 100 | > 100 |  | 
O=C1NC(=O)/C(=C\c2ccc(-c3ccc(F)cc3)o2)S1 | 0.4 | > 100 | 36.9 |  | 
Cc1ccc(N2CCC(N3CCN(C(=O)N4CCOCC4)CC3)CC2)c2[nH]c(-c3c(N[C@@H](CO)Cc4ccccc4Br)cc[nH]c3=O)nc12 | 0.009 |  |  |  | 

The remaining lines, values ahead:

IC50 [1] [µM] | IC50 (Insulin receptor) [µM] | IC50 (MCF7) [µM] | Activity [2] | pKa [3] | SMILES
11.1 | > 100 |  |  |  | CCc1ccc(/C=C2\SC(=O)NC2=O)cc1
> 100 |  |  |  |  | COc1cc(/C=C2/SC(=O)NC2=O)ccc1OCc1ccccc1
 | > 100 |  |  |  | CCOc1cc(Br)cc(/C=C2\SC(=O)NC2=O)c1O
 | > 100 | 87.3 |  |  | CCOc1ccc(/C=C2/SC(=O)NC2=O)cc1OC
8.8 | > 100 | 50.8 |  |  | O=C1NC(=O)/C(=C\c2ccc(Cl)c(Cl)c2)S1
 | > 100 |  | Active |  | COc1cc(Br)cc(/C=C2\SC(=O)NC2=O)c1O
49.8 |  |  |  |  | CCOc1cc(/C=C2/SC(=O)NC2=O)cc(Cl)c1OCC
6.3 | > 100 | 50.8 |  |  | COc1cc(/C=C2/SC(=O)NC2=O)cc(I)c1O
4.9 | > 100 | 55.8 |  |  | O=C1NC(=O)/C(=C\c2cccc([N+](=O)[O-])c2)S1
5.2 | > 100 | 56.3 |  |  | CCOc1cc(/C=C2/SC(=O)NC2=O)cc(Br)c1O
5.3 | > 100 |  |  |  | COc1cc(/C=C2/SC(=O)NC2=O)cc(OC)c1O
6.3 | > 100 |  |  |  | Cc1ccc(-c2ccc(/C=C3/SC(=O)NC3=O)o2)c(Br)c1
6.4 | 65.3 |  |  |  | COc1c(Br)cc(/C=C2\SC(=O)NC2=O)cc1Br
> 100 |  |  |  |  | C=CCc1cc(/C=C2\SC(=O)NC2=O)cc(OC)c1OC
10 | > 100 | > 100 |  |  | CCOc1cc2c(cc1/C=C1\SC(=O)NC1=O)OCO2
> 100 |  |  |  |  | CCCOc1c(Br)cc(/C=C2\SC(=O)NC2=O)cc1OCC
3.3 | > 100 | 24.8 |  |  | O=C1NC(=O)/C(=C\c2cc3c(cc2Br)OCO3)S1
15 | > 100 | > 100 |  |  | O=C1NC(=O)/C(=C/c2ccc(Cl)cc2Cl)S1
> 100 |  |  |  |  | CCOc1cc(/C=C2\SC(=O)NC2=O)c(Br)cc1OC

From ChEMBL document CHEMBL1157631, “Discovery and SAR of thiazolidine-2,4-dione analogues as insulin-like growth factor-1 receptor (IGF-1R) inhibitors via hierarchical virtual screening” (J Med Chem, 2010)
